Reference: the Kinase Knowledgebase extract (Sharma et al. 2016)

Key:
EGFR (mouse) [1] = molecular target: EGFR (mouse) (UniProt P00533); conditions: nih3t3/her14
EGFR (mouse) [2] = molecular target: EGFR (mouse) (UniProt P00533); conditions: nih3t3/neu
EGFR (mouse) [3] = molecular target: EGFR (mouse) (UniProt P00533); conditions: nih3t3

IC50 (EGFR (mouse) [1])	IC50 (EGFR (mouse) [2])	IC50 (EGFR (mouse) [3])	SMILES
9.8 µM	4 µM	–	COc1cc2ncnc(Nc3cccc(Cl)c3)c2cc1OC
207 µM	210 µM	214 µM	Cn1nnc2c(C(N)=O)ncn2c1=O
28.9 µM	16.5 µM	–	CNN=Nc1ccc2ncnc(Nc3cccc(C)c3)c2c1
10.4 µM	0.42 µM	–	Nc1ccc2ncnc(Nc3cccc(Br)c3)c2c1
2.1 µM	0.09 µM	–	CN(CO)N=Nc1ccc2ncnc(Nc3cccc(Br)c3)c2c1
149 µM	60.6 µM	–	CC(=O)N(C)N=Nc1ccc2ncnc(Nc3cccc(C)c3)c2c1
8.8 µM	0.09 µM	–	CNN=Nc1ccc2ncnc(Nc3cccc(Br)c3)c2c1
6.2 µM	1.1 µM	39.4 µM	COc1cc2ncnc(Nc3cccc(Cl)c3)c2cc1OC.Cn1nnc2c(C(N)=O)ncn2c1=O
3.4 µM	0.21 µM	–	CC(=O)OCN(C)N=Nc1ccc2ncnc(Nc3cccc(Br)c3)c2c1
